Source: paper PMC10067601, “Identification of a peptide ligand for human ALDH3A1 through peptide phage display: Prediction and characterization of protein interaction sites and inhibition of ALDH3A1 enzymatic activity” (Frontiers in Molecular Biosciences, 2023)
Entries after “also recorded” stand apart in the source; their conditions may differ.

Target: T1, human recombinant ALDH3A1 (Homo sapiens, UniProt P30838)
T1 construct: 6xHis (C); made in house; host or cells: E. coli, with chaperone co-expression (pG-KJE8 plasmid)
T1 sequence (P30838 1-453): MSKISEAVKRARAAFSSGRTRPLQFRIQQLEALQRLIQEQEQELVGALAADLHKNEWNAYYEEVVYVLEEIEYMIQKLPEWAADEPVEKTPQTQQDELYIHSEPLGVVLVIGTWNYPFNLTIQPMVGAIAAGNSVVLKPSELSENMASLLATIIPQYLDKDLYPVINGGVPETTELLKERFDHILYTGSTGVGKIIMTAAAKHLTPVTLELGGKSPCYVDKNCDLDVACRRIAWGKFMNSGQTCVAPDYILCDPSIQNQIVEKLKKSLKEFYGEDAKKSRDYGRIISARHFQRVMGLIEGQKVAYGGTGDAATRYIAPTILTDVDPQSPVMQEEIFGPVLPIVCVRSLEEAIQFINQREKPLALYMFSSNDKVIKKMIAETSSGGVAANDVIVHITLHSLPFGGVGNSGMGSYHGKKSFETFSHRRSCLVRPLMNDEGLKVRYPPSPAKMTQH
Experiment: ALDH3A1 enzymatic assay, benzaldehyde oxidation
Type: biochemical
Conditions: for Enzymatic Activity, AVERAGE %: mean of triplicates, STDEV % in r34
Protocol: The ability of ALDH3A1 to oxidize benzaldehyde in the presence of P1 was estimated by monitoring the production of NADH as described earlier with minor modifications ([Voulgaridou et al., 2013]). Human recombinant ALDH3A1 was combined with P1 and diluted in Milli-Q water, at 1:1,000. The final reaction was placed in a 0.5 mL quartz cuvette containing 50 mM Tris-HCl pH 8.5, 50 mM 2-Mercaptoethanol, 1.5 mM […], 20 nM ALDH3A1, 20 μM P1, and 1 mM Benzaldehyde. The reaction was initiated by the addition of the benzaldehyde substrate and was monitored at 340 nm for 5 min using a spectrophotometer (Libra S22, Biochrom Ltd, Cambridge, United Kingdom). In the case of CB29, the final reaction contained 40 μM CB29. Enzymatic activity was calculated as dOD/dT∗molarextinctioncoeiffcient∗pathcorrection∗enzyme^′sconcentrationinfinalreaction where, dT = minutes, molar extinction coefficient = 6220 M^-1/cm, path correction = 1 cm.
All experiments were conducted in triplicates and presented as % of the control’s enzymatic activity. As a control, the final reaction contained the respective Milli-Q water volume without P1 or CB29.
At least three independent experiments were performed for each condition tested. The values are expressed as the mean ± standard deviation (SD). Statistical analysis was performed with Graph Pad Prism software (version 9.4.1) (Graph Pad Inc., La Jolla, CA, United States). For all assays, statistical differences between groups were evaluated either by Student’s t-test or ANOVA, for multiple comparisons, followed by Dunnett’s or Tukey’s test. A level of p < 0.01 was considered statistically significant.

[1] = 20 μM P1 (n = 4) or 40 μM CB29 (n = 3)

**Q.** Which “Enzymatic activity, % of control, AVERAGE of experiments” value (20 μM P1 (4 experiments) or 40 μM CB29 (3 experiments), 1 mM benzaldehyde, 20 nM ALDH3A1, pH 8.5, 340 nm, 5 min) does the source give for “WPTYVSPFRSPP [P1, …, prevailing 12-mer phage display peptide, synthesised by Genecust]” here?
**A.** 53.6795%

**Q.** What about the “25% Percentile, % of control activity” value [1] of the same sequence?
**A.** 48.44

**Q.** What about the “75% Percentile, % of control activity” value [1] of the same sequence?
**A.** 60.33

**Q.** And the “Lower 95% CI of mean, % of control activity” value [1]?
**A.** 43.07

**Q.** What about the “Maximum, % of control activity” value [1] of the same sequence?
**A.** 63.01

**Q.** And the “Mean, % of control activity” value [1]?
**A.** 53.68

**Q.** What about the “Median, % of control activity” value [1] of the same sequence?
**A.** 52.27

**Q.** What about the “Minimum, % of control activity” value [1] of the same sequence?
**A.** 47.18

**Q.** And the “Upper 95% CI of mean, % of control activity” value [1]?
**A.** 64.29

**Q.** And the “Reduction in hALDH3A1 activity against benzaldehyde” value (20 μM P1, 20 nM ALDH3A1, 1 mM benzaldehyde, 50 mM Tris-HCl pH 8.5, 50 mM 2-mercaptoethanol, NADH at 340 nm, 5 min, vs control)?
**A.** ~50%

**Q.** And the “Enzymatic activity, % of control (Mean%)” value (20 μM P1, P1 Experiment 1, mean of n = 3, 1 mM benzaldehyde, 20 nM ALDH3A1, pH 8.5, 340 nm)?
**A.** 52.2857%

**Q.** And the “Enzymatic activity, % of control (Mean%)” value (20 μM P1, P1 Experiment 2, mean of n = 3, 1 mM benzaldehyde, 20 nM ALDH3A1, pH 8.5, 340 nm)?
**A.** 63.0078%

**Q.** What about the “Enzymatic activity, % of control (Mean%)” value (20 μM P1, fourth experiment line of Sheet6, mean of n = 3, 1 mM benzaldehyde, 20 nM ALDH3A1, pH 8.5, 340 nm) of the same sequence?
**A.** 47.1765%

**Q.** What about the “Enzymatic activity, % of control (Mean%)” value (20 μM P1, third experiment line of Sheet6, mean of n = 3, 1 mM benzaldehyde, 20 nM ALDH3A1, pH 8.5, 340 nm) of the same sequence?
**A.** 52.2481%

**Q.** And the “Effectiveness of inhibition compared with CB29” value (20 μM P1 vs 40 μM CB29, benzaldehyde)?
**A.** comparable to the inhibition capacity of the known hALD3A1 inhibitor CB29; also recorded: comparable with the inhibition caused by the CB29 molecule

**Q.** And the “95,00% CI of diff, control vs. compound” value (Dunnett's multiple comparisons, 20 μM P1 or 40 μM CB29)?
**A.** 37,24 to 55,40

**Q.** What about the “Mean Diff, control vs. compound” value (Dunnett's multiple comparisons, 20 μM P1 or 40 μM CB29, % of control activity) of the same sequence?
**A.** 46.32

**Q.** And the “Enzymatic Activity, AVERAGE %” value (Experiment 3, 20μM P1, % of control (control = 100))?
**A.** 52.2481%

**Q.** What about the “Enzymatic Activity, AVERAGE of triplicates” value (Experiment 3, 20μM P1, mean of triplicates, STDEV in r31) of the same sequence?
**A.** 7.566 µmol/min/mg

**Q.** What about the “Enzymatic Activity, AVERAGE %” value (Experiment 4, 20μM P1, % of control (control = 100)) of the same sequence?
**A.** 47.1765%

**Q.** And the “Enzymatic Activity, AVERAGE of triplicates” value (Experiment 4, 20μM P1, mean of triplicates, STDEV in r31)?
**A.** 9.945 µmol/min/mg

**Q.** And the “Enzymatic Activity, AVERAGE of triplicates” value (P1 Experiment 1, 20 μM, mean of n = 3)?
**A.** 7.9584 µmol/min/mg

**Q.** And the “Enzymatic Activity, AVERAGE of triplicates” value (P1 Experiment 2, 20 μM, mean of n = 3)?
**A.** 11.9878 µmol/min/mg
